Test results: publication PMC9437721, “Identification and characterization of two Isatis indigotica O-methyltransferases methylating C-glycosylflavonoids” (Horticulture Research, 2022)
Like-named read-outs stand apart in the source and are kept apart here.

Test system: T1, IiOMT2
T1 construct: N-terminal His6-SUMO tag kept (pE-SUMO), E. coli Rosetta (DE3), Ni-NTA
Assay: O-methyltransferase assay, UPLC, Michaelis-Menten fit
Assay type: biochemical, Isatis indigotica
Conditions: 480 μM SAM, Tris-HCl pH 9.0, 45 °C
Source text: O-methyltransferase assay, UPLC, Michaelis-Menten fit on IiOMT2

Km (read-out: Isoorientin / IiOMT2)	SMILES	Km (read-out: Luteolin / IiOMT2)
	O=c1cc(-c2ccc(O)c(O)c2)oc2cc(O)cc(O)c12 [compound 2, luteolin]	77 ± 12.6 µM
62.1 ± 16.1 µM	O=c1cc(-c2ccc(O)c(O)c2)oc2cc(O)c([C@@H]3O[C@H](CO)[C@@H](O)[C@H](O)[C@H]3O)c(O)c12 [compound 1, isoorientin]	
